Test results published in ChEMBL document CHEMBL1149474, “Synthesis and receptor binding properties of chimeric peptides containing a mu-opioid receptor ligand and nociceptin/orphanin FQ receptor ligand Ac-RYYRIK-amide” (Bioorg Med Chem Lett, 2006).
Non-standard residues stand in square brackets, D forms with d. Residues, ends and D or L forms follow the SMILES beside them. βAla = NCCC(=O)O

Tests used:
Nociceptin receptor = Nociceptin receptor (Homo sapiens, UniProt P41146); experiment: Displacement of [3H]NOC from human ORL1 receptor expressed in HEK293 cells; format: cell-based
Sequence of Nociceptin receptor (P41146 whole entry): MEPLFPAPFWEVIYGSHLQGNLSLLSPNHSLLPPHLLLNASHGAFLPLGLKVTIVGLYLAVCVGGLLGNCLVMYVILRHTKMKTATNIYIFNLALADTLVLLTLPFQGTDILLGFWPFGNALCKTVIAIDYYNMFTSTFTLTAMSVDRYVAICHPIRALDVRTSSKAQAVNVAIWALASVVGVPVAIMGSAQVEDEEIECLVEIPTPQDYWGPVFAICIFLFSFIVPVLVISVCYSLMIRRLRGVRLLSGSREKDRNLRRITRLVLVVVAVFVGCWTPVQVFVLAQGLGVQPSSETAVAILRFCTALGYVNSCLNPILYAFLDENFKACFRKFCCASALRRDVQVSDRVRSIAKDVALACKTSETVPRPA

Mu-type opioid receptor = Mu-type opioid receptor (Rattus norvegicus, UniProt P33535); experiment: Displacement of [3H]DAMGO from mu opioid receptor in rat brain homogenate; format: tissue-based
Sequence of Mu-type opioid receptor (P33535 whole entry): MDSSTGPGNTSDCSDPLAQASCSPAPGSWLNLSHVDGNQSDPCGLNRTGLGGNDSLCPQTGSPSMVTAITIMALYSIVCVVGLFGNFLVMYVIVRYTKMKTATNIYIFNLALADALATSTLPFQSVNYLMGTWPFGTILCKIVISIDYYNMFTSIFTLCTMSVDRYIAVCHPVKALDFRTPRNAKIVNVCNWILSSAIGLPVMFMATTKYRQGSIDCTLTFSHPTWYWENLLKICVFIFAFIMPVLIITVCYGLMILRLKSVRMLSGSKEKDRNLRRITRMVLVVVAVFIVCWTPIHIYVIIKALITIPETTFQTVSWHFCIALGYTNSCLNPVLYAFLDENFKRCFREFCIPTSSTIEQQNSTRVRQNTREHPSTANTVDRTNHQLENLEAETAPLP

Row | Compound | IC50 (Nociceptin receptor) [nM] | IC50 (Mu-type opioid receptor) [nM]
1 | CC[C@H](C)[C@H](NC(=O)[C@H](CCCN=C(N)N)NC(=O)[C@H](Cc1ccc(O)cc1)NC(=O)[C@H](Cc1ccc(O)cc1)NC(=O)[C@H](CCCN=C(N)N)NC(C)=O)C(=O)N[C@@H](CCCCN)C(=O)N[C@@H](CCCCNC(=O)[C@H](CO)NC(=O)[C@@H]1CCCN1C(=O)[C@H](Cc1ccc(O)cc1)NC(=O)CNC(=O)[C@H](Cc1ccccc1)NC(=O)[C@@H](C)NC(=O)[C@@H](N)Cc1ccc(O)cc1)C(N)=O | 11.6 | 
2 | CC[C@H](C)[C@H](NC(=O)[C@H](CCCN=C(N)N)NC(=O)[C@H](Cc1ccc(O)cc1)NC(=O)[C@H](Cc1ccc(O)cc1)NC(=O)[C@H](CCCN=C(N)N)NC(C)=O)C(=O)N[C@@H](CCCCN)C(=O)N[C@@H](CCCCNC(=O)CCNC(=O)[C@H](Cc1ccccc1)NC(=O)[C@@H](CCCN=C(N)N)NC(=O)[C@@H](N)Cc1ccc(O)cc1)C(N)=O | 0.789 | 2.76
3 | CC[C@H](C)[C@H](NC(=O)[C@H](CCCN=C(N)N)NC(=O)[C@H](Cc1ccc(O)cc1)NC(=O)[C@H](Cc1ccc(O)cc1)NC(=O)[C@H](CCCN=C(N)N)NC(C)=O)C(=O)N[C@@H](CCCCN)C(=O)NCC(=O)NCC(=O)NCC(=O)N[C@@H](CCCCNC(=O)CNC(=O)CNC(=O)[C@H](CO)NC(=O)[C@@H]1CCCN1C(=O)[C@H](Cc1ccc(O)cc1)NC(=O)CNC(=O)[C@H](Cc1ccccc1)NC(=O)[C@@H](C)NC(=O)[C@@H](N)Cc1ccc(O)cc1)C(N)=O | 0.0464 | 0.00236
4 | CC[C@H](C)[C@H](NC(=O)[C@H](CCCN=C(N)N)NC(=O)[C@H](Cc1ccc(O)cc1)NC(=O)[C@H](Cc1ccc(O)cc1)NC(=O)[C@H](CCCN=C(N)N)NC(C)=O)C(=O)N[C@@H](CCCCN)C(N)=O |  | > 10000
5 | CC[C@H](C)[C@H](NC(=O)[C@H](CCCN=C(N)N)NC(=O)[C@H](Cc1ccc(O)cc1)NC(=O)[C@H](Cc1ccc(O)cc1)NC(=O)[C@H](CCCN=C(N)N)NC(C)=O)C(=O)N[C@@H](CCCCN)C(=O)NCC(=O)NCC(=O)NCC(=O)N[C@@H](CCCCNC(=O)CNC(=O)CNC(=O)CNC(=O)CNC(=O)CNC(=O)CCNC(=O)[C@H](Cc1ccccc1)NC(=O)[C@@H](CCCN=C(N)N)NC(=O)[C@@H](N)Cc1ccc(O)cc1)C(N)=O | 0.0803 | 0.0477
6 | N=C(N)NCCC[C@@H](NC(=O)[C@@H](N)Cc1ccc(O)cc1)C(=O)N[C@@H](Cc1ccccc1)C(=O)NCCC(N)=O (H-Y[dR]F[βAla]-NH2) | > 10000 | 1.18
7 | C[C@@H](NC(=O)[C@@H](N)Cc1ccc(O)cc1)C(=O)N[C@@H](Cc1ccccc1)C(=O)NCC(=O)N[C@@H](Cc1ccc(O)cc1)C(=O)N1CCC[C@H]1C(=O)N[C@@H](CO)C(N)=O [DERMORPHIN] | > 10000 | 0.538
